Experimental data as given in patent US9907848B2, “Methods and compositions for treatment of metabolic disorders” (Beth Israel Deaconess Medical Center, Inc., priority 2010, dated 2018).
Entries after “also recorded” stand apart in the source; their conditions may differ.

Columns and labels:
iNKT [1] = settings: literature statement; cited from earlier work
iNKT cells [2] = test: αGC treatment of obese wt mice on HFD, metabolic outcome 4 days post-injection; type: in vivo
Method: (§1) The prototypical ligand for iNKT cells is the glycolipid, αGC. We investigated whether αGC treatment could activate the residual iNKT cells in obesity and improve metabolic outcome (FIGS. 16A-16H).
(§2) Wt, Jα18 KO and CD1d KO were weighed weekly and food intake was monitored on HFD. Body fat content was measured by an X-ray emitting DEXA scan, performed after mice were sacrificed. Whole abdominal adipose fat pads were weighed after dissecting out the testes and lymph nodes. After 6 weeks on HFD, fasting blood glucose (OneTouch Ultra) and insulin concentrations (Crystal Chem ELISA) were measured. For glucose tolerance tests, fasted (10 h) mice received 1 g glucose per kg body weight intraperitoneally (i.p); for insulin resistance, the homeostatic model assessment of insulin resistance (HOMA-IR) was used (Matthews et al., Diabetologia 28:412-419, 1985) was used: fasting blood glucose×fasting insulin/22.5. Two samples of 5 mm liver were collected and fixed in formalin overnight, prior to paraffin mounting and preparation of ME or Oil Red 0 stained slides for measurement of fatty liver or adipose prior to αGC (or control) treatment. For H&E and Oil Red O staining, biopsies were viewed using the 20× objective. Degree of fatty liver was measured by Oil Red O staining intensity around 5 portal tract areas per slide.
Adipocyte size and number were measured by osmium and immunohistochemistry. Two samples of 20-30 mg of adipose tissue per mouse were immediately fixed in osmium tetroxide (3% solution in collidine 0.05 M), minced into 1 mm pieces and incubated in the dark at room temperature for 48 hours. Adipose cell size and number were determined by a Beckman Coulter Multisizer III Counter with a 400 μm aperture. Adipose tissue was also fixed in formalin overnight, prior to paraffin mounting and preparation of H&E slid s. Adipocyte number was counted per field of view, in ten fields per sample and related back to the original weight of each fat pad.
(§3) Mice were injected i.p. with 2 μg of αGC or vehicle, and mice were sacrificed after 5 hours or 4 days, at the time of metabolic analysis. Single cell suspension of splenocytes, LMNC, and adipose tissue SVF were obtained as before, but with the inclusion of Brefeldin A in all media. Single cell suspensions of splenocytes or liver mononuclear cells (LMC) were stained firstly with cell surface labeling anti-CD3 mAb and αGC-loaded CD1d tetramer. Cells were then fixed, permeabilized, and intracellular cytokine stained for IL-4, IL-10 and IFN-γ using Cytofix/cytoperm (BD Biosciences), according to the manufacturer's instructions.

iNKT [3] = test: In vitro iNKT cytokine production stimulated by αGC-loaded CD1d+ C1R cells; type: cell-based, mice; settings: isolated iNKT stimulated with αGC
From the text: (§4) To verify the cytokine profile, iNKT were isolated (>90% purity) and stimulated in vitro with αGC.

IL-4 and IL-10 = test: Neutralizing IL-4 and IL-10 prior to αGC treatment, metabolic outcomes after 4 days; type: in vivo, mice; settings: IL-4 and IL-10 neutralized before αGC injection
From the text: As adipose tissue iNKT cells are skewed towards IL-4 and IL-10 production, we next investigated whether IL-4 and IL-10 were mediators of this protection seen by αGC treatment. We neutralized IL-4 and IL-10 prior to αGC treatment and measured metabolic outcomes after 4 days.

iNKT [4] = test: iNKT cytokine production in response to αGC in vivo (wt mice)
Method: as §4, §3

iNKT cells [5] = test: Effect of αGC on iNKT cells in fat, liver and spleen of obese mice; type: in vivo
Method: Single cell suspensions of splenocytes, liver mononuclear cells (LMNCs), and adipose SVF were blocked with anti-CD16/32 mAb and stained for 30 min at 4° C. in the dark with PBS-57-loaded or empty CD1d tetramer-PE (NIH tetramer facility) and CD3 (1:150 dilution, eBiosciences). Macrophages were labeled with phycoerythrin-conjugated antibody to F4/80 (1 in 100) and CD11c (1 in 200) and CD206 (1 in 200) to differentiate M1 from M2 macrophages in the SVF as previously described.
as §3

iNKT cells [6] = test: as above; type: in vivo; settings: after 6 hours
iNKT cells [7] = test: αGC treatment of obese Jα18 KO mice (no iNKT cells), control; type: in vivo; settings: 4 days post αGC
Method: as §1, §2, §3

iNKT cells [8] = test: αGC treatment of normal weight mice on SFD; type: in vivo
Method: as §1
as §2, with “After 6 weeks on HFD, fasting blood glucose (OneTouch Ultra) and insulin concentrations (Crystal Chem ELISA) were measured.” left out
Mice were injected i.p. with 2 μg of αGC or vehicle, and mice were sacrificed after 5 hours or 4 days, at the time of metabolic analysis. […]

## CCCCCCCCCCCCCCCCCCCCCCCCCC(=O)NC(COC1OC(CO)C(O)C(O)C1O)C(O)C(O)CCCCCCCCCCCCCC (stereo not drawn) [αGC, α-galactosylceramide]
iNKT [1]
  activation of iNKT: activate iNKT
iNKT cells [2]; 4 days post αGC injection
  % body fat (DEXA): lost a significant amount; also recorded: decreased
  adipocyte number: did not affect cell number; also recorded: did not differ
  adipocyte size: rapid and dramatic reduction in adipocyte size; also recorded: decreased
  circulating leptin: significantly improved; also recorded: decreased
  glucose tolerance test (GTT): improved GTT, returning it to almost normal
  insulin resistance / insulin sensitivity: significantly improved insulin resistance; also recorded: increased insulin sensitivity
  lean mass (DEXA): did not differ
  serum IL-4: non-significant increase
  serum IL-6: decreased serum IL-6
  serum TNFα: increased serum TNF-a
  serum triglycerides (circulating TGL): significantly improved; also recorded: decreased circulating TGL
iNKT cells [2]; 4 days post αGC injection, vs PBS
  fat deposition in the liver (Oil Red O): fat droplets were smaller and less frequent
iNKT cells [2]; 4 days post αGC injection, vs PBS control
  fasting blood glucose: marked reduction of fasting blood glucose
iNKT cells [2]; one i.p. injection of αGC, continued HFD for 4 days, vs PBS/vehicle
  overall weight: lost a significant amount of overall weight
iNKT [3]; vs liver or spleen
  IL-10 production by adipose iNKT in vitro: significantly more IL-10 per cell
iNKT [3]; vs splenic or hepatic iNKT
  IFNγ production by adipose iNKT in vitro: low levels of IFNγ; also recorded: significantly less IFNγ
IL-4 and IL-10
  GTT: prevented improvement
  fasting glucose: prevented improvement
iNKT [4]; following injection of αGC
  IL-4 production by adipose iNKT in vivo: slightly less IL-4
iNKT [4]; following injection of αGC, vs liver and spleen
  IL-10 production by adipose iNKT in vivo: significantly more IL-10
iNKT [4]; following injection of αGC, vs liver or spleen
  IFNγ production by adipose iNKT in vivo: did not produce IFNγ
iNKT [4]; response to αGC
  IFNγ production by spleen and liver iNKT in vivo: copious IFNγ
  IL-4 production by spleen and liver iNKT in vivo: less IL-4
  IL-10 production by spleen and liver iNKT in vivo: very low levels of IL-10
iNKT cells [5]; 4-5 hours, vs spleen and liver
  IFNγ production by adipose tissue iNKT cells: little IFNγ
  IL-4 and IL-10 production by adipose tissue iNKT cells: more IL-4 and IL-10
iNKT cells [5]; 4 days post-injection
  expansion of iNKT cells in fat (adipose tissue): expansion was greater in fat; also recorded: dramatic expansion
iNKT cells [5]; day 4 post-injection
  cytokine production by adipose tissue iNKT cells: still producing cytokines at day 4; also recorded: produced IL-4, IL-10, and IFN-γ at day 4; also recorded: remained actively producing cytokines
  expansion of iNKT cells in spleen and liver: expansion of iNKT cells by day 4
iNKT cells [5]; within 4-5 hours
  cytokine production by liver and spleen iNKT cells: produced both IFNγ and IL-4
iNKT cells [6]
  invariant TCR expression on iNKT cells: down-regulation of the invariant TCR after 6 hours
iNKT cells [7]
  GTT: not seen; also recorded: did not affect
  fasting glucose: improvement in fasting glucose was not seen; also recorded: did not affect
  weight loss: weight loss was not seen
iNKT cells [8]
  GTT: did not affect
  fasting glucose: did not affect
